# According to US8563565B2, “Pyrazoloquinoline derivatives” (Eisai R&D Management Co., Ltd., priority 2011, dated 2013):
# Molecular target: T1, human recombinant PDE9 protein (Homo sapiens, UniProt O76083)
# T1 construct: His-tag (inferred from the Ni column purification; a myc His-tag vector is named only for the HEK293 expression check); made in house; host or cells: silkworm (pYNG vector, Katakura Industries)
# Test: PDE9 inhibitory activity test (measurement of PDE9 inhibitory action, [3H]-cGMP)
# Type: biochemical
# Settings: PDE9 IC50, human recombinant PDE9, 30° C., 10 min
# Description: 1) Preparation of a Human Recombinant PDE9 Protein
# An hsPDE9A 1cDNA fragment was amplified by being based on a base sequence (Accession No.: AF048837) of the hsPDE9A1 registered on GenBank data base, and by using the following sequences (Hokkaido System Science Co., Ltd.) as a primer and Human hippocampus cDNA library (Clontech Laboratories, Inc.) as a template DNA, and using Pfu50 DNA polymerase (Invitrogen Corp.), and by a polymerase chain reaction (PCR) of the following condition.
# The condition of PCR: [96° C., 5 min]×1 cycle, [(96° C., 10 sec), (57° C., 5 sec), (72° C., 2 min)]×30 cycles
# The obtained hsPDE9A 1 cDNA fragment was incorporated in a TOPO-TA cloning vector (Invitrogen Corp.), and the base sequence was checked; and thereafter, the resultant was transfected in a pcDNA 3.1/myc His-tag vector (Invitrogen Corp.) to thereby make a human PDE9 expression vector for mammal cells. The human PDE9 expression vector for mammal cells was transfected with transient expression to an HEK293 cell by using a LIPOFETAMINE 2000 Reagent (Gibco). It was confirmed by Western blot method that the PDE9A expressed in the HEK293 cell, and then, the human PDE9A 1cDNA fragment was transfected in a pYNG vector (Katakura Industries Co., Ltd.) to thereby make an expression vector for insect cells. A supernatant of homogenized silk worm in which a large amount of PDE9 was expressed was purified by an equilibrated Ni column using a buffer A (20 mmol/L Tris-HCl, pH: 8.0, 1 mmol/L DTT, 10 mmol/L imidazole). After 1 hour of mixing of the supernatant and the Ni column, cleaning was carried out using a buffer B (20 mmol/L Tris-HCl, pH: 8.0, 1 mmol/L […]), and elution was carried out using a buffer C (20 mmol/L Tris-HCl, pH: 8.0, 1 mmol/L DTT, 100 mmol/L imidazole). An elution fraction was preparatively collected to thereby obtain a PDE9 enzyme solution.
# 2) Measurement of PDE9 Inhibitory Action
# To 100 μL of a buffer D (40 mmol/L Tris-HCl, pH: 7.4, 10 mmol/L MgCl2, 1 mM DTT, 2 μM cGMP) solution containing [^3H]-cGMP ([…]/mL), 10 μL of a compound solution for evaluation (a solution in which a compound was dissolved in DMSO and diluted so that the DMSO concentration became 5%) and 90 μL of a solution prepared by diluting the PDE9 enzyme solution prepared in the above with a buffer E (40 mmol/L Tris-HCl, pH: 7.4, 10 mmol/L MgCl2, 1 mM DTT, 1 mmol/L EGTA) were added under ice cooling. The resultant mixed solution was incubated at 30° C. for 10 min, and thereafter heated for 2 min in boiled water to stop the enzyme reaction of the PDE9. Then, the resultant was returned to room temperature; 50 μL of 5′-Nucleotidase (Biomol GmbH, 10 units/mL) was added thereto; and the resultant was incubated at 30° C. for 10 min to thereby convert [^3H]-5′-GMP formed in the previous reaction to [^3H]-guanosine. 500 μL of an anion exchange resin (Bio-Rad AG1-X2 resin, mesh size: 200-400, H2O:resin=2:1) was added to the resultant reaction liquid, and allowed to stand for 10 min, and thereafter centrifuged (2,000 rpm, 10 min); and a supernatant in which the [^3H]-guanosine was present was transferred to a LumaPlate (PerkinElmer, Inc.), and the radioactivity was measured by a TopCount NXT microplate scintillation and luminescence counter (PerkinElmer, Inc.).
# The inhibition percentage of the evaluation compound was calculated using the following expression, taking the radioactivity of a control containing no evaluation compound to be (A), the radioactivity of a blank containing no enzyme to be (B), and the radioactivity of the evaluation compound to be (C). Inhibition percentage=100−{[(C)−(B)]/[(A)−(B)]}×100(%)
# The IC50 value for PDE9 of the evaluation compound was determined from inhibition percentage for various concentrations.
# T1 sequence (O76083 whole entry): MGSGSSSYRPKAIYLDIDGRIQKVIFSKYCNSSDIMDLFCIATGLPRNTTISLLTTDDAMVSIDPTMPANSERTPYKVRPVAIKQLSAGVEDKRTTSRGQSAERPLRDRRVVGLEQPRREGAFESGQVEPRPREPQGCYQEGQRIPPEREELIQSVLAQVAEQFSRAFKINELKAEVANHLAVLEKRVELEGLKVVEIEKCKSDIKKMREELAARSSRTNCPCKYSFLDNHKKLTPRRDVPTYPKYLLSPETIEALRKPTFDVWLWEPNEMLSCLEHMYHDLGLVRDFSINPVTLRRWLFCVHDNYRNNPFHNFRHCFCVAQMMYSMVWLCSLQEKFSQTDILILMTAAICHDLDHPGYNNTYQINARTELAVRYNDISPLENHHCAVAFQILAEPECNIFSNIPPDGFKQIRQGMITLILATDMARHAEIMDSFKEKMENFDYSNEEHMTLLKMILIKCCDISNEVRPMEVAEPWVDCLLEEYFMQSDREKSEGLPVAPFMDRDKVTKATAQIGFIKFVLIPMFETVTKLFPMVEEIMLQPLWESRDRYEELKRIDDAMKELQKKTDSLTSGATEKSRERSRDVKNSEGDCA
row,IC50,SMILES
1,6.32 nM,Cc1cc(C(F)F)nc(C)c1-c1ccc2c(c1)[nH]c(=O)c1cnn(C3CCOCC3)c12 [Example 16]
2,6.08 nM,COc1nc(CF)cc(C)c1-c1ccc2c(c1)[nH]c(=O)c1cnn(C3CCOCC3)c12 [Example 17]
3,13 nM,Cc1cc(CF)nc(C)c1-c1ccc2c(c1)[nH]c(=O)c1cnn(C3CCOCC3)c12 [Example 19]
4,28.9 nM,Cc1cc(C)c(-c2ccc3c(c2)[nH]c(=O)c2cnn(C4CCOCC4)c23)c(CF)n1 [Example 20]
5,53.9 nM,Cc1cc(C)c(-c2ccc3c(c2)[nH]c(=O)c2cnn(C4CCOCC4)c23)c(C(F)F)n1 [Example 21]
6,52.3 nM,COc1cc(CF)c(-c2ccc3c(c2)[nH]c(=O)c2cnn(C4CCOCC4)c23)c(C)n1 [Example 22]
7,9.51 nM,"CCOc1nccc(C)c1-c1ccc2c(c1)[nH]c(=O)c1cnn(C3CCOCC3)c12 [Example 23, 7-(2-ethoxy-4-methylpyridin-3-yl)-1-(tetrahydro-2H-pyran-4-yl)-1H-pyrazolo[4,3-c]quinolin-4(5H)-one]"
8,3.21 nM,"Cc1cc(C2CCOCC2)cc(C)c1-c1ccc2c(c1)[nH]c(=O)c1cnn(C3CCOCC3)c12 [Example 40, 7-[2,6-dimethyl-4-(tetrahydro-2H-pyran-4-yl)phenyl]-1-(tetrahydro-2H-pyran-4-yl)-1H-pyrazolo[4,3-c]quinolin-4(5H)-one]"
9,12.1 nM,COc1cc(C)c(-c2ccc3c(c2)[nH]c(=O)c2cnn(C4COCCOC4)c23)c(C)c1 [Example 44]
10,3.33 nM,"COc1nc(C)cc(C)c1-c1ccc2c(c1)[nH]c(=O)c1cnn(C3COCCOC3)c12 [Example 45, 1-(1,4-dioxepan-6-yl)-7-(2-methoxy-4,6-dimethylpyridin-3-yl)-1H-pyrazolo[4,3-c]quinolin-4(5H)-one]"
11,18.1 nM,COc1cc(C)c(-c2ccc3c(c2)[nH]c(=O)c2cnn(C4COCCOC4)c23)c(C)n1 [Example 46]
12,5.67 nM,COc1nccc(C)c1-c1ccc2c(c1)[nH]c(=O)c1cnn(C3COCCOC3)c12 [Example 47]
13,8.35 nM,"Cc1cnc(OC(C)C)c(C)c1-c1ccc2c(c1)[nH]c(=O)c1cnn([C@H]3CCOC3)c12 [Example 48, (S)-7-(2-isopropyloxy-3,5-dimethylpyridin-4-yl)-1-(tetrahydrofuran-3-yl)-1H-pyrazolo[4,3-c]quinolin-4(5H)-one]"
14,12.2 nM,Cc1cnc(OC(F)F)c(C)c1-c1ccc2c(c1)[nH]c(=O)c1cnn([C@H]3CCOC3)c12 [Example 49]
15,6.51 nM,CCOc1ncc(C)c(-c2ccc3c(c2)[nH]c(=O)c2cnn([C@H]4CCOC4)c23)c1C [Example 50]
16,4.77 nM,"COc1nc(C)cc(C)c1-c1cc2[nH]c(=O)c3cnn(C4CCOCC4)c3c2cc1F [Example 52, 8-fluoro-7-(2-methoxy-4,6-dimethylpyridin-3-yl)-1-(tetrahydro-2H-pyran-4-yl)-1H-pyrazolo[4,3-c]quinolin-4(5H)-one]"
17,10.1 nM,"CCc1c(OC)ncc(C)c1-c1ccc2c(c1)[nH]c(=O)c1cnn([C@H]3CCOC3)c12 [Example 56, (S)-7-(3-ethyl-2-methoxy-5-methylpyridin-4-yl)-1-(tetrahydrofuran-3-yl)-1H-pyrazolo[4,3-c]quinolin-4(5H)-one]"
18,43.9 nM,"COc1ncc(C)c(-c2cc3[nH]c(=O)c4cnn([C@@H]5CCOC5)c4c3cc2F)c1C [Example 57, (R)-8-fluoro-7-(2-methoxy-3,5-dimethylpyridin-4-yl)-1-(tetrahydrofuran-3-yl)-1H-pyrazolo[4,3-c]quinolin-4(5H)-one]"
19,11.7 nM,COc1nc(C)cc(C)c1-c1cc2[nH]c(=O)c3cnn([C@@H]4CCOC4)c3c2cc1F [Example 58]
20,71.5 nM,COc1cc(C)c(-c2cc3[nH]c(=O)c4cnn([C@@H]5CCOC5)c4c3cc2F)c(C)n1 [Example 59]

# The remaining lines, values behind:
row,SMILES,IC50
1,"COc1nccc(C)c1-c1ccc2c(c1)[nH]c(=O)c1cnn(C3CCOC3)c12 (single isomer, unassigned) [32 (−)]",12.2 nM
2,"COc1ncc(C)c(-c2ccc3c(c2)[nH]c(=O)c2cnn(C4CCCOCC4)c23)c1C (single isomer, unassigned; (+)) [41 (+), (+)-7-(2-methoxy-3,5-dimethylpyridin-4-yl)-1-(oxepan-4-yl)-1H-pyrazolo[4,3-c]quinolin-4(5H)-one]",5.91 nM
3,"COc1nc(C)cc(C)c1-c1ccc2c(c1)[nH]c(=O)c1cnn(C3CCCOC3)c12 (single isomer, unassigned; (-)) [34 (−), (−)-7-(2-methoxy-4,6-dimethylpyridin-3-yl)-1-(tetrahydro-2H-pyran-3-yl)-1H-pyrazolo[4,3-c]quinolin-4(5H)-one]",3.36 nM
4,"COc1ncc(C)c(-c2ccc3c(c2)[nH]c(=O)c2cnn(C4CCCOCC4)c23)c1C (single isomer, unassigned; (-)) [41 (−), (−)-7-(2-methoxy-3,5-dimethylpyridin-4-yl)-1-(oxepan-4-yl)-1H-pyrazolo[4,3-c]quinolin-4(5H)-one]",12.1 nM
5,COc1ncc(C)c(-c2ccc3c(c2)[nH]c(=O)c2cnn([C@@H]4CCOC4)c23)c1C [25 (+)R],41 nM
6,COc1ncc(C)c(-c2ccc3c(c2)[nH]c(=O)c2cnn([C@H]4CCOC4)c23)c1C [25 (−)S],9.43 nM
7,COc1cc(C)c(-c2ccc3c(c2)[nH]c(=O)c2cnn(C4CCOC4)c23)c(CF)n1 (stereo not drawn) [30 (+)],225 nM
8,"Cc1cccc(C)c1-c1ccc2c(c1)[nH]c(=O)c1cnn(C3CCOCC3)c12 [Example 1, 7-(2,6-dimethylphenyl)-1-(tetrahydro-2H-pyran-4-yl)-1H-pyrazolo[4,3-c]quinolin-4(5H)-one]",24.3 nM
9,COCc1cc(C)c(-c2ccc3c(c2)[nH]c(=O)c2cnn(C4CCOCC4)c23)c(C)c1 [Example 7],9.2 nM
10,Cc1cc(F)nc(C)c1-c1ccc2c(c1)[nH]c(=O)c1cnn(C3CCOCC3)c12 [Example 8],25.2 nM
11,Cc1cc(Cl)c(-c2ccc3c(c2)[nH]c(=O)c2cnn(C4CCOCC4)c23)c(C)n1 [Example 9],21.7 nM
12,COc1ncc(Cl)c(C)c1-c1ccc2c(c1)[nH]c(=O)c1cnn(C3CCOCC3)c12 [Example 10],20.8 nM
13,COc1nc(C)c(Cl)c(C)c1-c1ccc2c(c1)[nH]c(=O)c1cnn(C3CCOCC3)c12 [Example 11],11.3 nM
14,Cc1cc(C#N)nc(C)c1-c1ccc2c(c1)[nH]c(=O)c1cnn(C3CCOCC3)c12 [Example 13],36.7 nM
15,COc1nc(C)c(-c2ccc3c(c2)[nH]c(=O)c2cnn(C4CCOCC4)c23)c(OC)n1 [Example 14],21.2 nM

# Test system: cGMP in the cerebrospinal fluid
# Test: Effect on rodent cerebrospinal fluid cGMP (rat)
# Type: in vivo
# Settings: po; rat(SD), 10 mg/kg p.o., sampling time 1 hr; read-out: % CSF cGMP increase from vehicle control
# Description: 3) Effect on Rodent Cerebrospinal Fluid cGMP
# The test compound was administered to ICR male mice (Charles River Laboratories Japan, Inc.), Sprague-Dawley male rats (SD) (Charles River Laboratories Japan, Inc.) or Long-Evans male rats (LE) (Institute for Animal Reproduction), and the cerebrospinal fluid was then collected under pentobarbital anesthesia and stored at −20° C. cGMP in the cerebrospinal fluid was measured in accordance with the acetylation EIA procedure of cGMP EIA kit (GE Healthcare) or the non-acetylation procedure of cGMP EIA kit (Cayman) The result was an increase (C) in the amount of cGMP of the test compound-administered group (B) relative to the amount of cGMP of the vehicle-administered group (A), and was calculated using the following formula cGMP increase(C)=[(B)−(A)]/(A)×100(%)
row,SMILES,change in vivo at 10 mg/kg
1,"COc1nccc(C)c1-c1ccc2c(c1)[nH]c(=O)c1cnn(C3CCOC3)c12 (single isomer, unassigned) [32 (−)]",72%
